Measurements taken from US7645740B2, “Peptide sequence found in Laminin 5 for treating skin impairments” (Laboratoires d'Anjou Centre National de la Recherche …, priority 2004, dated 2010).

What was measured:
[1] = test system: NHK-young (keratinocytes from young individuals); assay: Cell adhesion of NHK-young to immobilized peptide; type: cell-based, human
Experimental: Dose-dependent cell adhesion of NHK-10 years versus NHK-71 years (A) and NHK-11 years versus NHK-60 years (B) peptides TALRIRATYHEY. The peptides were immobilized in 96-well plates at the concentrations given on the abscissa. 3.5×10^4 (A) cells and 4.3×10^4 (B) cells were deposited in each well and plates were incubated at 37° C. for 1 hour. After washing, attached cells were fixed and cell adhesion was measured as described in the methodology section (C). Cells were observed by phase contrast microscopy then photographed. Bar=50 μm.
In order to obtain keratinocytes originating from biopsies taken from young and old individuals and taken from the same anatomical site, the inventors conducted a study of facial skin biopsies. The area of the face situated behind the ears was chosen in order to study only intrinsic aging and to overcome the effects of photo-induced aging. Surgery waste from cosmetic surgery (face lifts) in older individuals and surgery waste from detached ears in young children was collected. It is essential to use biopsies collected on the same day as surgery was performed in order to quickly place the epidermal keratinocytes in culture. Cells from biopsies on elderly individuals (60, 63 and 71 years) and young individuals (8, 10 and 11 years) were used for this study. The keratinocytes were obtained by means of the technique described by Boyce and Ham, 1985. After careful washing in PBS buffer containing antibiotics, fatty tissue located under the dermis was removed from the skin fragments using sterile instruments. Skin was then cut into 3 mm^2 sections which were placed in a sterile solution of 0.25% trypsin in PBS for 16 hours at 4° C. Dermis/epidermis separation was performed using tweezers in a Petri dish containing culture medium in order to stop the enzyme action of trypsin. Epidermal fragments were then aspirated and blown out several times using a pipette in order to detach free basal cells. […]

NHKs = assay: Effect of the peptide in soluble form on keratinocyte behaviour in culture; type: cell-based, human
Experimental: NHKs were seeded in 12-well plates at a rate of 5,000 cells per well. After 24 hours, the culture medium was removed and replaced with new medium containing 5%, 2.5%, 1.25%, 0.6% and 0.3% peptide (B—F). A peptide-free control was carried. The plates were then placed in the incubator at 37° C. for 48 hours. Observations were made with an Axiovert 40 Zeiss microscope. Bar=50 μm
Observation at higher magnification of the cell colonies described in FIG. 6 using an Axiovert 40 Zeiss microscope equipped with a PlasDisc interferential block. Bar=50 μm
Keratinocytes were seeded in 12-well plates (Costar) at a rate of 5,000 cells per well in KBM-2 medium. After 24 hours in culture at 37° C. with 5% CO2, the culture medium was removed and replaced with KBM-2 medium containing the peptide quantities given in the figures (a peptide-free control was also carried out). After 24 hours in culture, the same quantity of peptide was added to the culture medium and the experiment was stopped after a further 24 hours in culture. Microscope analyse was carried out without preliminary fixation using an Axiovert 40 Zeiss microscope coupled to a Coolsnap camera (Roper Scientific, Evry, France).

Question: “TALRIRATYGEY (Human laminin 5) [Peptide 1]” was tested. Which “deposited peptide quantity triggering adhesion” value ([1]; NHK-young) did it give?
Answer: Its value is 0.08 µg.

Question: What about the “cell adhesion to immobilized peptide” value ([1]; NHK-young, 0 to 5 micrograms per well, 1 hour 37° C.) of the same sequence?
Answer: Its value is “triggered dose-dependent cell adhesion”.

Question: And the “number of NHK-young cells attached compared to NHK-old (fold)” value ([1]; both experiments (10 vs 71 years, 11 vs 60 years), identical cell numbers)?
Answer: Its value is ~2.

Question: What about the “cell morphology vs control cells” value (NHKs; NHKs cultured with the peptide, higher magnification (FIG. 12)) of the same sequence?
Answer: The value was “no morphological difference”.

Question: And the “effect of peptide added to culture medium on colony formation” value (NHKs; NHKs, 5%, 2.5%, 1.25%, 0.6% and 0.3% peptide in medium, 48 hours, vs peptide-free control)?
Answer: Its value is “faster formation of cohesive colonies”.
